{"source": "paper PMC6529423", "about": "“The extracellular gate shapes the energy profile of an ABC exporter” (Nature Communications, 2019)", "target": "T1, EfrEF (Enterococcus faecalis, UniProt Q832J9+Q832K0)", "T1 construct": "gene EF_2226; heterodimeric ABC exporter, expressed in Lactococcus lactis NZ9000 from pNZ8048NH3, purified in DDM, reconstituted in proteoliposomes", "T1 sequence (Q832K0 entry or part of it)": "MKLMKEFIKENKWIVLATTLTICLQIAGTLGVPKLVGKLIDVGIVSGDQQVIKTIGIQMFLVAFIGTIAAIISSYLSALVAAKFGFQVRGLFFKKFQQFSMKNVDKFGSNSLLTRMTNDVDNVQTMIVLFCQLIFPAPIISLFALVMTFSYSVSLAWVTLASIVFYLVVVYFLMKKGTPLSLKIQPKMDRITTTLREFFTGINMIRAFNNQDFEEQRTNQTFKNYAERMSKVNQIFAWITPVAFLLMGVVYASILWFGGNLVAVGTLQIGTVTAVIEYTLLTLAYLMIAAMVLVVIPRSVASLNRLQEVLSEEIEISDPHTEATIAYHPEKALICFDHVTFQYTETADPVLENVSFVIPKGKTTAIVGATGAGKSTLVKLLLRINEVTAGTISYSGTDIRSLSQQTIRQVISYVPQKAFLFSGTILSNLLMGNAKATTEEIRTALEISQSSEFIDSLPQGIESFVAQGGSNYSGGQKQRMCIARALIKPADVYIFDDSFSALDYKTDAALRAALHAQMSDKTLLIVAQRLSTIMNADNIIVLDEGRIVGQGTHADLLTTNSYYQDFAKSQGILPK", "T1 sequence (Q832J9 entry or part of it)": "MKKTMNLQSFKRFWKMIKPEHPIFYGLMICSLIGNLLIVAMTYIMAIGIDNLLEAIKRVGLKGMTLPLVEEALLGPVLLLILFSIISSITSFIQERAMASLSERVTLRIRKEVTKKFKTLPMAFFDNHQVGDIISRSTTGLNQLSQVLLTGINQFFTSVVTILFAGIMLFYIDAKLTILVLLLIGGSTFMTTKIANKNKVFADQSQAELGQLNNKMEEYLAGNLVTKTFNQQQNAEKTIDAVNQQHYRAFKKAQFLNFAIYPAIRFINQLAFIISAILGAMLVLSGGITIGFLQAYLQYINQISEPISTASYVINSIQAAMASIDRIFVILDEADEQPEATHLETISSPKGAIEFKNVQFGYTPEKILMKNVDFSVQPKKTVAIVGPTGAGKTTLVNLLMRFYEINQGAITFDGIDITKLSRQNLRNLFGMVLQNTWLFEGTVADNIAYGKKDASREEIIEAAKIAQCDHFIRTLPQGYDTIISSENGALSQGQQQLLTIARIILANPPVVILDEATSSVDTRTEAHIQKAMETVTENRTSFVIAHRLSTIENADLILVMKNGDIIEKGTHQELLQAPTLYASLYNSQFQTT", "assay": "ATPase stimulation in proteoliposomes; also ethidium efflux from L. lactis cells", "assay_type": "biochemical", "conditions": "1 mM ATP, 10 mM MgSO4, 50 mM HEPES pH 7.0, 30 °C; stimulator of ATPase"}
{"smiles": "CC[n+]1c(-c2ccccc2)c2cc(N)ccc2c2ccc(N)cc21", "note": "[ethidium]", "values": [{"measurement": "ATPase stimulation in proteoliposomes; also ethidium efflux from L. lactis cells", "result": "Wild-type EfrEF efficiently expels ethidium from the cell"}]}
